Test results published in patent US10383938B2 (priority 2010, dated 2019).

Legend:
[1] = test system: interferon-gamma (IFNgamma); set-up: species or system mice; conditions: mouse, in vivo
[2] = test system: TNF mRNA; test: Local in vivo activity: TNF mRNA gene expression in draining lymph nodes by quantitative PCR (Example 11); set-up: species or system Balb/c male mice; conditions: s.c. 1.0 mg/kg; for TNF mRNA Gene Expression in Lymph Nodes [fold increase versus control (s.d.)]: draining axial and brachial lymph nodes
Method: (§1) The final dose for either compound was 1.0 mg/kg. At each time point, the mice were bled, sacrificed, and the draining axial and brachial lymph nodes were removed and placed in RNA preservation fluid (RNA later reagent obtained from Ambion Corporation, Austin, Tex.). Serum samples were analyzed for TNF protein concentration (pg/ml) by ELISA as a measure of systemic presence of this cytokine. The draining lymph nodes were processed for measurement of TNF mRNA gene expression by quantitative PCR (7900HT Thermocycler obtained from Applied Biosystems, Carlsbad, Calif.). The data reported (Table 10) is the mean+/−standard deviation (s.d.) for each group. The “not detected” level for serum TNF concentration was less than 10 pg/ml.

[3] = test system: systemic tumor necrosis factor (TNF); test: Systemic TNF induction in vivo after subcutaneous injection (Example 4); conditions: mice
Method: The resiquimod preparation was made as an aqueous suspension in PBS.
At one hour and at three hours post dose, the mice were bled and systemic TNF was measured in the serum (pg/mL) by ELISA assay. The results are presented as the geometric means obtained for each group of five animals. […] This can be important in providing localized immune system enhancement without systemic TNF side effects.

[4] = test system: TNF protein; test: Local in vivo activity: serum TNF protein by ELISA (Example 11); set-up: species or system Balb/c male mice; conditions: s.c. 1.0 mg/kg, mean (s.d.) of 4 mice, not detected = less than 10 pg/ml
Method: as §1

[5] = test system: human peripheral mononuclear cells (PBMC); test: TNF production in human PBMC (Example 7); format: cell-based; conditions: for TNF: human PBMC, overnight at 37° C., ELISA
Method: The human peripheral blood mononuclear cells were prepared from human volunteers and placed in culture in 96 well microtiter plates. […] The cells were then incubated overnight at 37° C. The medium was removed and TNF concentration (ng/mL) was measured by ELISA assay (Table 6).

CCCCCCCCCCCCCCCCCC(=O)NCCCCOn1c(CCCC)nc2c(N)nc3ccccc3c21 [N-(4-{[4-amino-2-butyl-1H-imidazo[4,5-c]quinolin-1-yl]oxy}butyl)octadecanamide]
In Vitro Challenge of Isolated Spleenocytes, IFNgamma, Control PBS Challenge [1]: 4.82 pg/mL | In Vitro Challenge of Isolated Spleenocytes, IFNgamma, HA Antigen Challenge [1]: 293.51 pg/mL | cytokine induction effects, local versus systemic (in words) ([2]; TNF mRNA induced in draining lymph nodes without TNF protein in serum): primarily local | TNF mRNA Gene Expression in Lymph Nodes [fold increase versus control (s.d.)] ([2]; 1 hour post dose): 0.65 (0.04) fold increase versus control | TNF mRNA Gene Expression in Lymph Nodes [fold increase versus control (s.d.)] ([2]; 3 hours post dose): 1.62 (1.23) fold increase versus control | TNF mRNA Gene Expression in Lymph Nodes [fold increase versus control (s.d.)] ([2]; 6 hours post dose): 7.23 (2.07) fold increase versus control | TNF mRNA Gene Expression in Lymph Nodes [fold increase versus control (s.d.)] ([2]; 18 hours post dose): 1.55 (0.28) fold increase versus control | systemic TNF response (in words) ([3]; subcutaneous injection, 1 mg/Kg, summary of Table 3): does not induce a systemic TNF response | Serum TNF [pg/ml (s.d.)] ([4]; 1 hour post dose): not detected | Serum TNF [pg/ml (s.d.)] ([4]; 3 hours post dose): not detected | Serum TNF [pg/ml (s.d.)] ([4]; 6 hours post dose): not detected | Serum TNF [pg/ml (s.d.)] ([4]; 18 hours post dose): not detected | TNF ([5]; 0.014 μM): 0.13 ng/mL | TNF ([5]; 0.043 μM): 0.17 ng/mL | TNF ([5]; 0.13 μM): 0.35 ng/mL | TNF ([5]; 0.37 μM): 2.51 ng/mL | TNF ([5]; 1.1 μM): 7.07 ng/mL | TNF ([5]; 3.3 μM): 28.73 ng/mL | TNF ([5]; 10 μM): 31.46 ng/mL | TNF ([5]; 30 μM): 29.47 ng/mL | induction of TNF-α production (in words) ([5]; summary statement, "as described above"): induce the production of TNF-α

CCOCc1nc2c(N)nc3ccccc3c2n1CC(C)(C)O [Resiquimod, resiquimod, reference compound]
In Vitro Challenge of Isolated Spleenocytes, IFNgamma, Control PBS Challenge [1]: 3.84 pg/mL | In Vitro Challenge of Isolated Spleenocytes, IFNgamma, HA Antigen Challenge [1]: 91.88 pg/mL | TNF mRNA Gene Expression in Lymph Nodes [fold increase versus control (s.d.)] ([2]; 1 hour post dose): 14.19 (3.83) fold increase versus control | TNF mRNA Gene Expression in Lymph Nodes [fold increase versus control (s.d.)] ([2]; 3 hours post dose): 4.82 (0.70) fold increase versus control | TNF mRNA Gene Expression in Lymph Nodes [fold increase versus control (s.d.)] ([2]; 6 hours post dose): 1.39 (0.27) fold increase versus control | TNF mRNA Gene Expression in Lymph Nodes [fold increase versus control (s.d.)] ([2]; 18 hours post dose): 0.90 (0.23) fold increase versus control | TNF concentration at Times Following Treatment, 1 hour ([3]; s.c. 1 mg/Kg, serum at 1 hour post dose, geometric mean of 5 animals): 1140.41 pg/mL | TNF concentration at Times Following Treatment, 3 hour ([3]; s.c. 1 mg/Kg, serum at 3 hours post dose, geometric mean of 5 animals): <5 pg/mL | Serum TNF [pg/ml (s.d.)] ([4]; 1 hour post dose): 4082 (873) pg/ml | Serum TNF [pg/ml (s.d.)] ([4]; 3 hours post dose): 107 (35) pg/ml | Serum TNF [pg/ml (s.d.)] ([4]; 6 hours post dose): 18 (4) pg/ml
